Measurements taken from ChEMBL document CHEMBL3638781, “Inhibitors of Œ=-secretase” (2015).

Molecular target: Beta-secretase 1 (Homo sapiens, UniProt P56817)
Assay: Fluorescence Quench Assay: The inhibitory activity of compounds was assessed by a fluorescence quench assay of BACE1 activity using commercially available substrate HiLyte Fluor 488-[…](QXLT 520)-OH (SEQ ID NO:1) AnaSpec, San Jose, Calif.) and truncated human beta-secretase, BACE1 (amino acids 1-454) fused to a myc-his tag and secreted from HEK293/BACEect. cells into OptiMEM (Invitrogen). The substrate was dissolved at 1 mg/ml in DMSO.The assay was performed in the presence of OptiMEM (supernatant collected over 24 h and cleared from cellular debris by centrifugation) containing the ectodomain of BACE1, 25 ul water containing the desired 2-fold concentration of test compound and 2% DMSO, 1 uM substrate peptide, 20 mM NaOAc, pH 4.4, and 0.04% Triton-X100 in a total assay volume of 50 ul in a 384 well plate. In general, 25 ul of compound dilution were given to the plate followed by the addition of 10 ul of BACE1 containing OptiMEM diluted 1:10 in water.

Beta-secretase 1, sequence (P56817 whole entry, the tested form may be a part): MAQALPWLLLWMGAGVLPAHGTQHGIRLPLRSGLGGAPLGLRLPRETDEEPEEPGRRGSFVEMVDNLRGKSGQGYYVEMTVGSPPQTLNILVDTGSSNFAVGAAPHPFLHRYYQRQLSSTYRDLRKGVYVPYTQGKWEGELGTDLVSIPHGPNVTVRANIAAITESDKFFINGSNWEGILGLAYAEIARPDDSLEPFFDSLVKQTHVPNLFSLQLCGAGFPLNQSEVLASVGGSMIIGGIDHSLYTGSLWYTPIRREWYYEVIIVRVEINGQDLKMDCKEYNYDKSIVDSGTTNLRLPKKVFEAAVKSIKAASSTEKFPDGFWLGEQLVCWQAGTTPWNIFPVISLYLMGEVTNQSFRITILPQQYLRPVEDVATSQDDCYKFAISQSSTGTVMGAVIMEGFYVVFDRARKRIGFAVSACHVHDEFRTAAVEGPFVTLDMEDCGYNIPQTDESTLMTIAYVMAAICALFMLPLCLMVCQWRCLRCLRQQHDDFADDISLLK

CO[C@H]1CC[C@@]2(Cc3ccc(C#N)cc3[C@]23N=C(N)N(Cc2ncccn2)C3=O)C[C@@H]1C
IC50: 11 nM
